Assay results as given in patent US12077503B2, “Substituted cyclic amides and their use as herbicides” (FMC CORPORATION, priority 2015, dated 2024).

Experiments:
Type in all cases: in vivo
rice (Oryra sativa) = assay: Test B flooded paddy test; details: Oryza sativa, 360 h, Flood, 250 g ai/ha; visually evaluated after 13 to 15 d; read-out: Plant response rating, Rice (0 to 100 scale where 0 is no effect and 100 is complete control)
Method in brief: (§1)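 Evaluation by eye, against controls, occurred 13–15 d post-treatment in a greenhouse, using a 0 (no effect) to 100 (complete control) scale. Application was into the paddy water, 3 cm deep over the soil, on 2-leaf plants.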

[1] = system: sedge, umbrella (small-flower umbrella sedge, Cyperus difformis); assay: Test B flooded paddy test; details: Cyperus difformis, 360 h, Flood, 250 g ai/ha; visually evaluated after 13 to 15 d; read-out: Plant response rating, Sedge, Umbrella (0 to 100 scale where 0 is no effect and 100 is complete control)
Method in brief: as §1

[2] = system: barnyardgrass (Echinochloa crus-galli); assay: Test B flooded paddy test; details: Echinochloa crus-galli, 360 h, Flood, 250 g ai/ha; visually evaluated after 13 to 15 d; read-out: Plant response rating, Barnyardgrass (0 to 100 scale where 0 is no effect and 100 is complete control)
Method in brief: as §1

[3] = system: ducksalad (Heteranthera limosa); assay: Test B flooded paddy test; details: Heteranthera limosa, 360 h, Flood, 250 g ai/ha; visually evaluated after 13 to 15 d; read-out: Plant response rating, Ducksalad (0 to 100 scale where 0 is no effect and 100 is complete control)
Method in brief: as §1

Kochia (Kochia scoparia) [4] = assay: Test A preemergence; details: Bassia scoparia, pre-emergence, 240 h, Preemergence
Method in brief: (§2)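 Preemergence directed soil spray on seeded pots, or postemergence application to plants 2–10 cm, one- to two-leaf. Solvent mixture non-phytotoxic, with surfactant. Scored ~10 d later, visually, 0–100 vs untreated.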

[5] = system: ryegrass, Italian (Italian ryegrass, Lolium multiflorum); assay: Test A preemergence; details: Lolium multiflorum, pre-emergence, 240 h, Preemergence
Method in brief: as §2

[6] = system: ragweed (common ragweed, Ambrosia elatior); assay: Test A preemergence; details: Ambrosia artemisiifolia, pre-emergence, 240 h, Preemergence
Method in brief: as §2

[7] = system: pigweed (Amaranthus retroflexus); assay: Test A preemergence; details: Amaranthus retroflexus, pre-emergence, 240 h, Preemergence
[8] = system: barnyardgrass (Echinochloa crus-galli); assay: Test A preemergence; details: Echinochloa crus-galli, pre-emergence, 240 h, Preemergence
Method in brief: as §2

[9] = system: giant foxtail (Setaria faberii); assay: Test A preemergence; details: Setaria faberi, pre-emergence, 240 h, Preemergence
Method in brief: as §2

[10] = system: Galium (catchweed bedstraw, Galium aparine); assay: Test A postemergence; details: Galium, post-emergence, 240 h, Postemergence, read-out: Galium plant response rating (0 to 100 scale)
Method in brief: as §2

Kochia (Kochia scoparia) [11] = assay: Test A postemergence; details: Bassia scoparia, post-emergence, 240 h, Postemergence, read-out: Kochia plant response rating (0 to 100 scale)
Method in brief: as §2

[12] = system: ryegrass, Italian (Italian ryegrass, Lolium multiflorum); assay: Test A postemergence; details: Lolium multiflorum, post-emergence, 240 h, Postemergence, read-out: Ryegrass, Italian plant response rating (0 to 100 scale)
Method in brief: as §2

[13] = system: ragweed (common ragweed, Ambrosia elatior); assay: Test A postemergence; details: Ambrosia artemisiifolia, post-emergence, 240 h, Postemergence, read-out: Ragweed plant response rating (0 to 100 scale)
Method in brief: as §2

corn (Zea mays) = assay: Test A postemergence; details: Zea mays, post-emergence, 240 h, Postemergence, read-out: Corn plant response rating (0 to 100 scale)
Method in brief: as §2

[14] = system: pigweed (Amaranthus retroflexus); assay: Test A postemergence; details: Amaranthus retroflexus, post-emergence, 240 h, Postemergence, read-out: Pigweed plant response rating (0 to 100 scale)
Method in brief: as §2

[15] = system: wheat (Triticum aestivum); assay: Test A postemergence; details: Triticum aestivum, post-emergence, 240 h, Postemergence, read-out: Wheat plant response rating (0 to 100 scale)
Method in brief: as §2

[16] = system: barnyardgrass (Echinochloa crus-galli); assay: Test A postemergence; details: Echinochloa crus-galli, post-emergence, 240 h, Postemergence
Method in brief: as §2

[17] = system: blackgrass (Alopecurus myosuroides); assay: Test A postemergence; details: Alopecurus myosuroides, post-emergence, 240 h, Postemergence, read-out: Blackgrass plant response rating (0 to 100 scale)
Method in brief: as §2

[18] = system: giant foxtail (Setaria faberii); assay: Test A postemergence; details: Setaria faberi, post-emergence, 240 h, Postemergence, read-out: Foxtail, Giant plant response rating (0 to 100 scale)
Method in brief: as §2

[19] = 125 g ai/ha, visual rating about 10 d after treatment
[20] = 31 g ai/ha, 0 is no effect, 100 is complete control

SMILES: COc1c([C@H]2CN(C)C(=O)[C@@H]2C(=O)Nc2ccccc2SC)cccc1C(F)(F)F [Compound 1340]
- pest or weed control at 250 g/ha (rice (Oryra sativa)): 20%
- pest or weed control at 250 g/ha [1]: 0%
- pest or weed control at 250 g/ha [2]: 40%
- pest or weed control at 250 g/ha [3]: 80%
- pest or weed control at 31 g/ha (Kochia (Kochia scoparia) [4]; 31 g ai/ha, 0 to 100 scale where 0 is no effect and 100 is complete control, read-out: Kochia plant response rating): 0%
- pest or weed control at 125 g/ha (Kochia (Kochia scoparia) [4]; 125 g ai/ha, 0 to 100 scale (0 no effect, 100 complete control), read-out: Plant response rating, Kochia): 0%
- pest or weed control at 31 g/ha ([5]; 31 g ai/ha, 0 to 100 scale where 0 is no effect and 100 is complete control, read-out: Ryegrass, Italian plant response rating): 0%
- pest or weed control at 125 g/ha ([5]; 125 g ai/ha, 0 to 100 scale (0 no effect, 100 complete control), read-out: Plant response rating, Ryegrass, Italian): 0%
- pest or weed control at 31 g/ha ([6]; 31 g ai/ha, 0 to 100 scale where 0 is no effect and 100 is complete control, read-out: Ragweed plant response rating): 0%
- pest or weed control at 125 g/ha ([6]; 125 g ai/ha, 0 to 100 scale (0 no effect, 100 complete control), read-out: Plant response rating, Ragweed): 0%
- pest or weed control at 31 g/ha ([7]; 31 g ai/ha, 0 to 100 scale where 0 is no effect and 100 is complete control, read-out: Pigweed plant response rating): 0%
- pest or weed control at 125 g/ha ([7]; 125 g ai/ha, 0 to 100 scale (0 no effect, 100 complete control), read-out: Plant response rating, Pigweed): 20%
- pest or weed control at 31 g/ha ([8]; 31 g ai/ha, 0 to 100 scale where 0 is no effect and 100 is complete control, read-out: Barnyardgrass plant response rating): 90%
- pest or weed control at 125 g/ha ([8]; 125 g ai/ha, 0 to 100 scale (0 no effect, 100 complete control), read-out: Plant response rating, Barnyardgrass): 90%
- pest or weed control at 31 g/ha ([9]; 31 g ai/ha, 0 to 100 scale where 0 is no effect and 100 is complete control, read-out: Foxtail, Giant plant response rating): 40%
- pest or weed control at 125 g/ha ([9]; 125 g ai/ha, 0 to 100 scale (0 no effect, 100 complete control), read-out: Plant response rating, Foxtail, Giant): 90%
- pest or weed control at 125 g/ha [10, 19]: 20%
- pest or weed control at 31 g/ha [10, 20]: 0%
- pest or weed control at 125 g/ha (Kochia (Kochia scoparia) [11]; [19]): 20%
- pest or weed control at 31 g/ha (Kochia (Kochia scoparia) [11]; [20]): 0%
- pest or weed control at 125 g/ha [12, 19]: 0%
- pest or weed control at 31 g/ha [12, 20]: 0%
- pest or weed control at 125 g/ha [13, 19]: 0%
- pest or weed control at 31 g/ha [13, 20]: 0%
- plant injury at 125 g/ha (corn (Zea mays); [19]): 20%
- plant injury at 31 g/ha (corn (Zea mays); [20]): 0%
- pest or weed control at 125 g/ha [14, 19]: 0%
- pest or weed control at 31 g/ha [14, 20]: 0%
- plant injury at 125 g/ha [15, 19]: 0%
- plant injury at 31 g/ha [15, 20]: 0%
- pest or weed control at 125 g/ha ([16]; 125 g ai/ha, visual rating about 10 d after treatment, read-out: Barnyardgrass plant response rating (0 to 100 scale, 0 no effect, 100 complete control)): 30%
- pest or weed control at 31 g/ha ([16]; 31 g ai/ha, 0 is no effect, 100 is complete control, read-out: Barnyardgrass plant response rating (0 to 100 scale)): 20%
- pest or weed control at 125 g/ha [17, 19]: 0%
- pest or weed control at 31 g/ha [17, 20]: 0%
- pest or weed control at 125 g/ha [18, 19]: 50%
- pest or weed control at 31 g/ha [18, 20]: 0%
